Data as given in patent US10392348B2, “2-oxo-3,4-dihydroquinoline compounds as plant growth regulators” (Syngenta Participations AG, priority 2015, dated 2019).
Like-named read-outs stand apart in the source and are kept apart here.

Assays:
[1] = system: corn plants (variety NK OCTET); assay: Reduced plant water use in corn (foliar spray, repeated weighing of pots); format: in vivo; details: Zea mays, corn plants sprayed at 500 μM, average of 6 pots
In short: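 Twelve-day-old corn plants sprayed on foliage with EC formulations diluted in water with 0.4% rape seed methyl ester. Day-time water use tracked by repeated pot weighing through 2.5 DAA, summed cumulatively; analysed by covariance with water use 1 day before application as baseline.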

[2] = system: soybean plants (variety S20-G7); assay: Reduced plant water use in soybean (foliar spray, repeated weighing of pots); format: in vivo; details: Glycine max, foliar, Table B1, sprayed at 500 μM, vs negative control
In short: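 Compounds in blank EC formulation diluted in water with EXTRAVON 1 g/20 L, foliar-sprayed on 12-day-old soybean in growth chambers. Water use from repeated pot weighing at a.m./p.m. periods over 0-2 DAA, summed to cumulative 0-2.5 DAA; ANCOVA with pre-application baseline covariate, relative to blank-formulation control.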

[3] = 0 h, water use during day time vs negative control, 0 DAA a.m. (10:30-12:50), read-out: % WU 0 DAA AM
[4] = 0 h, water use during day time vs negative control, 0 DAA p.m. (14:00-19:50), read-out: % WU 0DAA PM
[5] = 24 h, water use during day time vs negative control, 1 DAA a.m. (07:30-12:50), read-out: % WU 1DAA AM
[6] = 24 h, water use during day time vs negative control, 1 DAA p.m. (14:00-19:50), read-out: % WU 1DAA PM
[7] = 48 h, water use during day time vs negative control, 2 DAA a.m. (07:30-12:50), read-out: % WU 2 DAA AM
[8] = 48 h, water use during day time vs negative control, 2 DAA p.m. (14:00-19:50), read-out: % WU 2 DAA PM
[9] = 60 h, cumulative total water use 0-2.5 DAA (sum of the time points) vs negative control, read-out: % WU Total 0 to 2.5 DAA
[10] = 0 h, 0 DAA a.m. (10:30-12:50), read-out: % WU 0 DAA AM
[11] = 24 h, 1 DAA a.m. (7:30-12:50), read-out: % WU 1DAA AM
[12] = 24 h, 1 DAA p.m. (14:00-19:50), read-out: % WU 1DAA PM
[13] = 48 h, 2 DAA a.m. (07:30-12:50), read-out: % WU 2 DAA AM
[14] = 48 h, 2 DAA p.m. (14:00-19:50), read-out: % WU 2 DAA PM
[15] = 60 h, cumulative total WU (0-2.5 DAA), read-out: % WU Total 0 to 2.5 DAA

| Structure (SMILES) | melting point [°C] | change in vivo at 500 µM [1, 3] [%] | change in vivo at 500 µM [1, 4] [%] | change in vivo at 500 µM [1, 5] [%] | change in vivo at 500 µM [1, 6] [%] | change in vivo at 500 µM [1, 7] [%] | change in vivo at 500 µM [1, 8] [%] | change in vivo at 500 µM [1, 9] [%] | change in vivo at 500 µM [2, 10] [%] | change in vivo at 500 µM [2, 11] [%] | change in vivo at 500 µM [2, 12] [%] | change in vivo at 500 µM [2, 13] [%] | change in vivo at 500 µM [2, 14] [%] | change in vivo at 500 µM [2, 15] [%] |
| --- | --- | --- | --- | --- | --- | --- | --- | --- | --- | --- | --- | --- | --- | --- |
| CCCN1C(=O)CCc2cc(CNS(=O)(=O)c3c(F)cccc3F)ccc21 [Compound 3.005, 2,6-difluoro-N-[(2-oxo-1-propyl-3,4-dihydroquinolin-6-yl)methyl]benzenesulfonamide] | 182 to 183 | -16.2 | -10.5 | -9.2 | -7.9 | -5.4 | -5.3 | -8.2 | -37.5 | -24.9 | -21.9 | -12.9 | -12 | -21.9 |
| CCCN1C(=O)CCc2cc(CNS(=O)(=O)c3ccccc3F)ccc21 [Compound 3.007, 2-fluoro-N-[(2-oxo-1-propyl-3,4-dihydroquinolin-6-yl)methyl]benzenesulfonamide] | 155 to 156 | -16 | -12 | -11.4 | -9.5 | -6.6 | -5.9 | -9.4 | -16.1 | -12.7 | -9.7 | -7.7 | -7.6 | -10.8 |
| C/C=C/S(=O)(=O)NCc1ccc2c(c1)CCC(=O)N2CCC [Compound 3.060, (E)-N-[(2-oxo-1-propyl-3,4-dihydroquinolin-6-yl)methyl]prop-1-ene-1-sulfonamide] | 95 to 99 | -14.8 | -10 | -10.6 | -8.4 | -8.2 | -6.4 | -9.3 | -7.9 | -5.8 | -2.6 | -5.4 | -2.7 | -4.6 |
| CCCN1C(=O)CCc2cc(CNS(=O)(=O)c3ccc(C)s3)ccc21 [Compound 3.061, 5-methyl-N-[(2-oxo-1-propyl-3,4-dihydroquinolin-6-yl)methyl]thiophene-2-sulfonamide] | 151 to 154 | -20.8 | -19.1 | -9.5 | -7.5 | -2.8 | -3.9 | -9 | -47.8 | 1 | 3.4 | 1.6 | 1.2 | -13.7 |
| CCCN1C(=O)CCc2cc(CNS(=O)(=O)c3cn(C)cn3)ccc21 [Compound 3.063, 1-methyl-N-[(2-oxo-1-propyl-3,4-dihydroquinolin-6-yl)methyl]imidazole-4-sulfonamide] | 168 to 171 | -8.4 | -3.1 | -3 | -1 | -1.5 | 2 | -1.4 | -9.3 | -5.1 | -3.9 | -6.6 | -5 | -5.5 |
| CCCN1C(=O)CCc2cc(CNS(=O)(=O)c3cc(Cl)sc3Cl)ccc21 [Compound 3.064, 2,5-dichloro-N-[(2-oxo-1-propyl-3,4-dihydroquinolin-6-yl)methyl]thiophene-3-sulfonamide] | 131 to 134 | -12.6 | -14.2 | -11.6 | -9.9 | -5.6 | -4.7 | -9.3 | -34.7 | -23.3 | -21.3 | -17.2 | -13.5 | -22.2 |
| CCCN1C(=O)CCc2cc(CNS(=O)(=O)CCC(F)(F)F)ccc21 [Compound 3.067, 3,3,3-trifluoro-N-[(2-oxo-1-propyl-3,4-dihydroquinolin-6-yl)methyl]propane-1-sulfonamide] | 132 to 135 | -14.7 | -10.7 | -12.1 | -11.5 | -9.9 | -10.1 | -11.1 | -28.4 | -19.3 | -17.2 | -13.3 | -9.5 | -17.2 |

Second part, led by results:

| melting point [°C] | Structure (SMILES) | change in vivo at 500 µM [1, 3] [%] | change in vivo at 500 µM [1, 4] [%] | change in vivo at 500 µM [1, 5] [%] | change in vivo at 500 µM [1, 6] [%] | change in vivo at 500 µM [1, 7] [%] | change in vivo at 500 µM [1, 8] [%] | change in vivo at 500 µM [1, 9] [%] | change in vivo at 500 µM [2, 10] [%] | change in vivo at 500 µM [2, 11] [%] | change in vivo at 500 µM [2, 12] [%] | change in vivo at 500 µM [2, 13] [%] | change in vivo at 500 µM [2, 14] [%] | change in vivo at 500 µM [2, 15] [%] |
| --- | --- | --- | --- | --- | --- | --- | --- | --- | --- | --- | --- | --- | --- | --- |
| 143 to 145 | CCCN1C(=O)CCc2cc(CNS(=O)(=O)c3ccc(Br)cc3)ccc21 [Compound 3.002, 4-bromo-N-[(2-oxo-1-propyl-3,4-dihydroquinolin-6-yl)methyl]benzenesulfonamide] | -16.3 | -12.2 | -13.4 | -10.5 | -9.5 | -7 | -10.9 | -22.5 | -13.7 | -9.4 | -6.7 | -4.7 | -11.4 |
| 141 to 144 | CCCN1C(=O)CCc2cc(CNS(=O)(=O)c3ccc(F)cc3F)ccc21 [Compound 3.006, 2,4-difluoro-N-[(2-oxo-1-propyl-3,4-dihydroquinolin-6-yl)methyl]benzenesulfonamide] | -18 | -14.1 | -12.6 | -10.2 | -6.6 | -5.7 | -10.3 | -36.5 | -28.3 | -24.2 | -17.8 | -14.9 | -24.5 |
| 143 to 144 | CCCN1C(=O)CCc2cc(CNS(=O)(=O)c3ccc(F)cc3)ccc21 [Compound 3.009, 4-fluoro-N-[(2-oxo-1-propyl-3,4-dihydroquinolin-6-yl)methyl]benzenesulfonamide] | -16.9 | -13.9 | -13.2 | -11.9 | -9 | -8.2 | -11.6 | -17.5 | -9.4 | -6.4 | -5.5 | -4.2 | -8.5 |
| 143 to 144 | CCCN1C(=O)CCc2cc(CNS(=O)(=O)c3ccc(OC)cc3)ccc21 [Compound 3.010, 4-methoxy-N-[(2-oxo-1-propyl-3,4-dihydroquinolin-6-yl)methyl]benzenesulfonamide] | -14.4 | -8.3 | -6.3 | -5.4 | -2.5 | -2.2 | -5.5 | -28 | -3 | -1 | -2.1 | -1.7 | -5.7 |
